Entries after “also recorded” stand apart in the source; their conditions may differ.
What was measured:
[1] = system: primary cultured neuronal cells; assay: Western blot band density ratio of Bcl-xL to Bax in primary neuron lysates; assay type: cell-based, mouse; conditions: 12 h; for Neuronal injury, Western blot band density ratio of Bcl-xL to Bax: JAK inhibitor 50 nM, IFN-γ 100 U/ml with gp120 or Tat 250 ng/ml
Method: (§1) Primary cultures of mouse cortical neurons were prepared as described previously (Chin et al., 1997). Briefly, neuronal cells were isolated from newborn C57BL16 mice and seeded in 6-well tissue-culture plates at 2×10^5 cells/well for 48 h. […] In addition, to test whether EGCG could inhibit JAK/STAT1 signaling and neuronal damage induced by gp120 or/and Tat in the presence of IFN-γ, EGCG was also employed as the co-treatment. Cell culture supernatants were used for LDH assay while cell lysates were used for Western blot analysis of Bcl-xL and Bax proteins.
(§2) Normal C57BL/6 primary cultured neuronal cells as well as STAT1-deficient primary neuronal cells were isolated and cultured as described previously (Chin et al., 1997). Normal cells were co-treated with either gp120 or Tat (250 ng/ml) with or without IFN-γ (100 U/ml) and/or JAK inhibitor (50 nM). STAT1-deficient cells were treated with HIV-1 gp120 or HIV-1 Tat (250 ng/ml) in the presence or absence of IFN-γ (100 U/ml) for 12 h. At the end of the treatment period, neuronal cells were washed in ice-cold PBS three times and lysed in ice-cold lysis buffer. After incubation for 30 mm on ice, samples were centrifuged at high speed for 15 mm, and supernatants were collected. Total protein content was estimated by using the Bio-Rad protein assay. For phosphorylation of JAK1, membranes were first hybridized with phosphospecific Tyr1022/1023 JAK1 antibody (Cell Signaling Technology, Beverly, Mass.) and then stripped and finally analyzed by total JAK1. For STAT1 phosphorylation, membranes were probed with a phospho-Ser727 STAT1 antibody (Cell Signaling Technology), stripped with stripping solution, and then re-probed with an antibody that recognizes total STAT1 (Cell Signaling Technology). Alternatively, membranes with identical samples were probed either with phospho-JAK or STAT1 or with an antibody that recognizes total JAK or STAT1. Immunoblotting was performed with a primary antibody, followed by an anti-rabbit HRP-conjugated IgG secondary antibody as a tracer. After being washed in TBS, the membranes were incubated in the luminol reagent and exposed to film.
Western blot was performed as described previously (Tan et al., 2002). Briefly, for the in vivo studies left hemispheres of mouse brains were lysed in ice-cold lysis buffer and an aliquot corresponding to 50 μg of total protein was electrophoretically separated using 16.5% Tris-tricine gels. Electrophoresed proteins were then transferred to PVDF membranes (BioRad), washed in dH2O, and blocked for 1 h at ambient temperature in Tris-buffered saline containing 5% (w/v) nonfat dry milk. […] Densitometric analysis was done using the Fluor-S MultiImager™ with Quantity One™ software (Bio-Rad). […]

[2] = system: primary cultured neuronal cells; assay: LDH release assay, primary cultured neurons challenged with gp120/Tat and IFN-γ; assay type: cell-based, mouse; conditions: for Neuronal injury, LDH release: JAK inhibitor 50 nM, IFN-γ 100 U/ml with gp120 or Tat 250 ng/ml; for Neuronal injury, LDH release / LDH release: 12 h
Method: as §1, §2
LOU release assay (Promega, Madison, Wis.) was performed as previously described (Tan et al., 2002). Briefly, after treatment at a variety of conditions, cell cultured media were collected for LOU release assay. Total LDH release was represent maximal lysis of target cells with 5% Triton X-100. Data are presented as mean±SD of LOU release.

[3] = system: C57BL/6 mice; assay: In vivo neurotoxicity, Bcl-xL/Bax Western blot of brain homogenates; parameters: species or system mouse; conditions: 24 h
Description: (§3) Animals were anesthetized using isoflurane (chamber induction at 4-5% isoflurane, intubation and maintenance at 1-2%). After reflexes were checked to ensure that mice were unconscious, they were positioned on a stereotaxic frame (Stoelting Lab Standard) with ear-bars positioned and jaws fixed to a biting plate. The axis coordinates were taken from a mouse brain atlas, and a 5-mm sterile plastic guide cannula (21 GA; Plastic One, Inc., Roanoke, Va.) was implanted into the left lateral ventricle delimited from the stereotaxic coordinates (coordinates relative to bregma: −0.6 mm anterior/posterior, +1.2 mm medial/lateral, and −3.0 mm dorsal/ventral) using the stereotaxic device (Stoelting Lab Standard) and an attached probe (cannula) holder. IFN-γ (200 U/mouse) with HIV-1 protein gp120 (500 ng/mouse) or Tat (500 ng/mouse) or PBS (10 μl) was administered at the rate of 1 μl/min using a Hamilton syringe (modified with a solder stop to prevent over insertion of the needle) through the implanted cannula. Correctness of the injection was confirmed by trypan blue dye administration and histological examination. The wounds were closed with 1-2 staples and mice were all observed until anesthesia had cleared. […]
(§4) Western blot was performed as described previously (Tan et al., 2002). […] Densitometric analysis was done using the Fluor-S MultiImager™ with Quantity One™ software (Bio-Rad). […]

[4] = system: STAT1; assay: STAT1 phosphorylation by Western blot in primary cultured neurons; assay type: cell-based, mouse
Method: as §2, with “Alternatively, membranes with identical samples were probed either with phospho-JAK or STAT1 or with an antibody that recognizes total JAK or STAT1. Immunoblotting was performed with a primary antibody, followed by an anti-rabbit HRP-conjugated IgG secondary antibody as a tracer. After being washed in TBS, the membranes were incubated in the luminol reagent and exposed to film.” left out
as §4

[5] = system: C57BL/6 mice; assay: In vivo neurotoxicity, NeuN staining of cortical brain sections after i.c.v. injection; parameters: species or system mouse; conditions: 24 h
Description: as §3, with “cannula.” for “cannula. Correctness of the injection was confirmed by trypan blue dye administration and histological examination. The wounds were closed with 1-2 staples and mice were all observed until anesthesia had cleared.”
At sacrifice, mice were anesthetized with isofluorane and transcardially perfused with ice-cold physiological saline containing heparin (10 U/ml). […] After another cycle of washing, floating sections were mounted onto slides, dehydrated and coverslipped with Vectashield fluorescence mounting media (Vector Labs., Burlingame, Calif.). […]

[6] = system: JAK1; assay: JAK1 phosphorylation by Western blot in primary cultured neurons; assay type: cell-based, mouse
Method: as §2, with “Alternatively, membranes with identical samples were probed either with phospho-JAK or STAT1 or with an antibody that recognizes total JAK or STAT1. Immunoblotting was performed with a primary antibody, followed by an anti-rabbit HRP-conjugated IgG secondary antibody as a tracer. After being washed in TBS, the membranes were incubated in the luminol reagent and exposed to film.” left out
as §4

[7] = EGCG 50 mg/kg i.p., i.c.v. IFN-γ/gp120 or IFN-γ/gp120/Tat
[8] = EGCG at a range of doses co-incubated with IFN-γ 100 U/ml, 60 min
[9] = EGCG 20 μM, gp120 or Tat 500 ng/ml with IFN-γ 100 U/ml
[10] = IFN-γ 100 U/ml, time-dependently
[11] = IFN-γ 100 U/ml added to gp120 or Tat 250 ng/ml

In the case of CC(C)(C)c1nc2c3ccc(F)cc3c3c(=O)[nH]ccc3c2[nH]1 [JAK inhibitor, 2-(1,1-Dimethylethyl)-9-fluoro-3,6-dihydro-7H-benz[h] -imidaz[4,5-f] isoquinolin-7-one], the “Neuronal injury, Western blot band density ratio of Bcl-xL to Bax” value [1] is reported as “significantly inhibited”, the “Neuronal injury, Western blot band density ratio of Bcl-xL to Bax” value ([1]; listed as JAK1 inhibitor) is reported as “greatly reduced” and the “Cell death and apoptosis indicators (LDH, Bcl-xL/Bax) versus control treatment group” value ([2]; JAK1 inhibitor, combination of gp120 and Tat included in the treatment) is reported as “did not return to baseline levels”. For the same molecule, the “Neuronal injury, LDH release” value [2] was “significantly inhibited” and the “Neuronal injury, LDH release” value ([2]; listed as JAK1 inhibitor) was “greatly reduced”.

(-)-epigallocatechin-3-gallate [EGCG] was tested, and the “Ratio of Bcl-xL to Bax in brain homogenates” value [3, 7] was “significant increases”, the STAT1 phosphorylation [4, 8] was “dose-dependent inhibition” and the “Ratio of Bcl-xL to Bax” value [1, 9] was “increased”. For the same molecule, the “Neuronal damage in cortical regions (NeuN)” value [5, 7] was “marked reduction; also recorded: protective”, the LDH release [2, 9] was “decreased” and the JAK1 phosphorylation [6, 8] was “dose-dependent inhibition”.

With “IFN-γ: murine recombinant IFN-γ; R&D Systems; type II interferon, soluble cytokine” the “Ratio of Bcl-xL to Bax in brain homogenates” value ([3]; i.c.v. IFN-γ 200 U/mouse with gp120 or Tat 500 ng/mouse) was “significant reduction”, the “Phosphorylation of STAT1” value [4, 10] was “stimulates phosphorylation” and the “Band density ratio of Bcl-xL to Bax” value [1, 11] was “reduced”. For the same molecule, the “Neuronal damage in cortical brain regions (NeuN)” value ([5]; i.c.v. IFN-γ 200 U/mouse plus gp120 500 ng/mouse vs controls, IFN alone or gp120 alone) was “marked increase”, the LDH release [2, 11] was “significantly increased” and the “Phosphorylation of JAK1” value [6, 10] was “stimulates phosphorylation”.
